Source: US20220177877A1, “HIGHLY MULTIPLEXED BASE EDITING” (President and Fellows of Harvard College, priority 2019, published 2022)

How the values were obtained:
LINE-1 [1] = test: Single cell clonal isolation and sequence verification of live edited HEK 293T clones; settings: for Mean target deamination % / Number of cells with targeted deamination / Percent of cells with targeted deamination: HEK 293T, Day 14; for non-specific nucleotide conversions in gRNA and PAM: most highly edited clone versus parental 293T control
Method: (§2) Single cells were FACS-sorted into flat bottom 96-well plates containing 100 μL of DMEM with 10% FBS and 1% Penicillin/Streptomycin per well. Sorted plates were incubated for ˜14 days until well-characterized colonies were visible, with periodic media changes performed as necessary. To extract gDNA, the cells were first detached using 30 μL TRYPLE™ Express (Thermofisher Cat. #12604021) and neutralized with 30 μL growth media. Then, 4 μL of the resulting cell suspension was transferred to 10 μL of QE. Genomic DNA was extracted according to manufacturer's protocol, as described previously.
(§3) Library preparation was conducted as previously described^5. Briefly, genomic DNA was amplified using locus-specific primers attached to part of the Illumina adapter sequence. A second round of PCR included the index sequence and the full Illumina adapter. All PCRs were carried out using KAPA HiFi HotStart ReadyMix (KAPA Biosystems KK2602) according to the manufacturer's thermocycler conditions. Libraries were purified using gel extraction (Qiagen Cat. #28706), quantified using Nanodrop and pooled together for deep sequencing on the MiSeq using 150 paired end (PE) reads.
(§4) All paired end reads were aligned to the reference genome using bowtie2, and the resulting alignment files were converted to bam, sorted, indexed, and variant called using samtools^7. All SNV data within a 30 bp window from the 5′ start of the gRNA proceeding through the PAM and extending an additional seven bp's (for a 20 bp gRNA) are reported to analyze the editing window and purity of editing.

LINE-1 [2] = tested on: LINE-1
Method: as §2, §3, §4

LINE-1 [3] = test: FACS single cell direct NGS of targeted deamination, HEK 293T; assay type: cell-based, human; settings: for Mean target deamination % / Percent of cells with targeted deamination / Number of cells with targeted deamination: HEK 293T; for Mean target deamination % / Percent of cells with targeted deamination: Day 2; for Number of cells with targeted deamination: Day 2, 96 analyzed cells
Method: To quantify early genetic editing in cells transfected with Cas9/BE and gRNA expression plasmids, single cells were sorted and prepared as follows. Two days post-transfection, single cells were FACS-sorted into 96-well PCR plates containing 10 μL of QUICKEXTRACT™ DNA Extraction Solution (Epicentre Cat. #QE09050) per well and genomic DNA (gDNA) was extracted using the manufacturer's protocol. Briefly, the sorted plates were sealed, vortexed and heated at 65° C. for 6 minutes then 98° C. for 2 minutes. The NGS library was prepared as described later below.
(§1) Library preparation was conducted as previously described^5.

LINE-1 [4] = test: NGS base editing deamination analysis, bulk transfected HEK 293T; assay type: cell-based, human; settings: for gRNAs with above control levels of base editing in genomic DNA: HEK 293T, LINE-1 gRNAs
Method: as §1

LINE-1 [5] = test: Line-1 subfamily analysis and matches to HL1gR4 (HL1gR4 PCR products); set-up: species or system human; settings: for Reads: Total Reads 35520
[6] = 293T, HL1gR4, two days post-transfection
[7] = HL1gR6, 3 days after transfection

Method for single-locus targets: HEK 293T cells were obtained from ATCC with verification of cell line identification and mycoplasma negative results. They were expanded using 10% fetal bovine serum (FBS) in high-glucose DMEM with glutamax passaging at a typical rate of 1:100 and maintained at 37° C. with 5% CO2. Transfection was conducted using Lipofectamine 2000 (ThermoFisher Catalogue #11668019) using the protocol recommended by the manufacturer with slight modifications outlined below. 24 hours before transfection ˜1.0×10^5 cells were seeded per well in a 12-well plate along with 1 mL of media. A total of 2 μg of DNA and 2 μL of Lipofectamine 2000 were used per well. For Cas9 plasmids, the DNA content per well was 1 μg of pCas9_GFP mixed with 1 μg of gRNA-expressing plasmid. For BE plasmids, 1.5 μg of BE was mixed with 0.5 μg of gRNA plasmid. In the dBE vs nBE comparison used to generate FIGS. 4A-4C, Pifithrin-α (10 ng/μ1) from Sigma-Aldrich P4359 (source #063M4741V, Batch #0000003019) was added to the media 30 minutes before transfection and maintained in the first day media change.
Raw Illumina sequencing data was demultiplexed using bcl2fastq. All paired end reads were aligned to the reference genome using bowtie2^49 and the resulting alignment files were parsed for their cigar string to determine the position and size of all indels within each read using a custom perl script (https://github.com/CRISPRengineer/mutation_indel). All indels that were sequenced in both the forward and reverse reads were summed across all reads and reported for each sample along with the total number of reads. Indels within a 30 bp window from the 5′ start of the gRNA proceeding through the PAM and extending an additional seven bp's (for a 20 bp gRNA) were counted and summed for each sample.
as §4

## dCBE4-gam: nick-less dCas9 cytidine base editor with mu-gam (H840A), SEQ ID NO: 108
LINE-1 [1]
  Mean target deamination %: 3.05%
  Number of cells with targeted deamination: 20
  Percent of cells with targeted deamination: 69%
  non-specific nucleotide conversions in gRNA and PAM: some non-specific nucleotide conversions
LINE-1 [1]; day 14
  increase in mean editing frequency among surviving live clones compared to nicking counterpart: 2.38 fold
LINE-1 [2]
  Number of analyzed cells: 29
LINE-1 [3]; 293T, HL1gR4, 2 days after transfection
  mean target nucleotide deamination frequency compared to nBE equivalents: significant reductions
LINE-1 [3]
  Mean target deamination %: 4.43%
  Percent of cells with targeted deamination: 41.7%
  Number of cells with targeted deamination: 40
HEK 293T
  total number of chromosomal aberrations of top edited clones: not significantly different than control groups
single-locus targets
  indel activity: reduced to background levels

## dCBE4: nick-less dCas9 cytidine base editor (H840A), SEQ ID NO: 107
single-locus targets
  indel activity: reduced to background levels
single-locus targets; 293T cells, day five
  improvement in editing efficiency over CBE2: 2.38 fold
  reduction in efficiency compared to nicking counterparts: 34.7%

## nCBE4-gam: Cas9 nickase-cytidine deaminase-gam, SEQ ID NO: 12, Addgene #100806 [reference compound]
LINE-1 [1]; 293T, HL1gR4, day 30
  deamination frequencies of surviving cell lines: ≤ 1.37 % of LINE-1
  estimated sites edited in surviving cell lines: ~356 sites
LINE-1 [1]
  Mean target deamination %: 1.28%
  Number of cells with targeted deamination: 4
  Percent of cells with targeted deamination: 33%
  non-specific nucleotide conversions in gRNA and PAM: some non-specific nucleotide conversions
LINE-1 [2]
  Number of analyzed cells: 12
LINE-1 [3]; [6]
  deamination in the most highly edited single cell: up to 54.9%
  estimated loci edited in the most highly edited single cell: 14,300 loci
LINE-1 [3]
  Mean target deamination %: 6.08%
  Percent of cells with targeted deamination: 65.6%
  Number of cells with targeted deamination: 63
LINE-1 [3]; day 2
  C→T deamination in cells after a second round of editing of cloneK: up to 36.26%
HEK 293T
  total number of chromosomal aberrations of top edited clones: not significantly different than control groups
LINE-1 [4]
  gRNAs with above control levels of base editing in genomic DNA: 4 out of 5

## HL1gR4: SpCas9 gRNA targeting LINE-1 ORF2, SEQ ID NO: 54 (guide ATTCTACCAGAGGTACAAGG; chemistry not given here)
LINE-1 [5]; # of Mismatches 0
  Percentage of reads: 64.1%
  Reads: 22780
LINE-1 [5]; # of Mismatches 1
  Percentage of reads: 18.4%
  Reads: 6546
LINE-1 [5]; # of Mismatches 2
  Percentage of reads: 3.2%
  Reads: 1131
LINE-1 [5]; # of Mismatches 3
  Percentage of reads: 0.4%
  Reads: 148
LINE-1 [5]; # of Mismatches 4
  Percentage of reads: 0.2%
  Reads: 63
LINE-1 [5]; # of Mismatches 5
  Percentage of reads: 0.0%
  Reads: 2
LINE-1 [5]; # of Mismatches 6
  Percentage of reads: 0.1%
  Reads: 26
LINE-1 [5]; # of Mismatches 7
  Percentage of reads: 0.0%
  Reads: 1
LINE-1 [5]; # of Mismatches 8
  Percentage of reads: 0.0%
  Reads: 1
LINE-1 [5]; # of Mismatches 9
  Percentage of reads: 0.0%
  Reads: 1
LINE-1 [5]; # of Mismatches >9
  Percentage of reads: 13%
  Reads: 4600

## nCBE3: rAPOBEC1-XTEN-nCas9-UGI-NLS, SEQ ID NO: 10, Addgene #73021 [reference compound]
LINE-1 [1]; 293T, HL1gR4
  fate of edited cell lines before day 30: died
LINE-1 [3]; [6]
  mean deamination frequency compared with nCBE4-gam: significantly higher

## nABE: ecTadA(wt)-linker(32aa)-ecTadA*(7.10)-linker(32aa)-nCas9-NLS, SEQ ID NO: 15, Addgene #102919
LINE-1 [1]
  Mean target deamination %: 0.88%
  Number of cells with targeted deamination: 4
  Percent of cells with targeted deamination: 25%
  non-specific nucleotide conversions in gRNA and PAM: not
LINE-1 [2]
  Number of analyzed cells: 16
LINE-1 [3]
  Mean target deamination %: 5.32%
  Percent of cells with targeted deamination: 60.4%
  Number of cells with targeted deamination: 58
LINE-1 [3]; nABE 5.32% versus dABE 1.45%
  decrease in editing efficiency at the early timepoint: 3.67 fold
HEK 293T
  total number of chromosomal aberrations of top edited clones: not significantly different than control groups
LINE-1 [4]
  gRNAs with above control levels of base editing in genomic DNA: 4 out of 5
LINE-1 [4]; [7]
  editing efficiency: 4.94%
  loci edited: ~1290 loci
